# Experiment: Effect of alkalinizing agents on the pH of a solution of 0.1 N HCl with a starting pH of 2.0
# Type: physicochemical
# Protocol: Various alkalinizing agents were added to a solution of 0.1 N HCl with a starting pH of 2.0 and the pH of the solution was tested at different time points.
smiles,measurement,setting,value
"[O]=[Mg] [MgO, magnesium oxide]",pH,"40 mg per 320 mL, 0 min",2.01
same,pH,"40 mg per 320 mL, 1 min",2.01
same,pH,"40 mg per 320 mL, 2 min",2.03
same,pH,"40 mg per 320 mL, 3 min",2.08
same,pH,"40 mg per 320 mL, 4 min",2.10
same,pH,"40 mg per 320 mL, 5 min",2.13
same,pH,"40 mg per 320 mL, 6 min",2.16
same,pH,"40 mg per 320 mL, 7 min",2.19
same,pH,"40 mg per 320 mL, 8 min",2.22
same,pH,"40 mg per 320 mL, 9 min",2.23
same,pH,"40 mg per 320 mL, 10 min",2.24
same,pH,"40 mg per 320 mL, 20 min",2.30
same,pH,"40 mg per 320 mL, 30 min",2.33
same,pH,"40 mg per 320 mL, 40 min",2.39
same,pH,"40 mg per 320 mL, 50 min",2.34
same,pH,"40 mg per 320 mL, 60 min",2.34
same,pH,"80 mg per 320 mL, 0 min",1.99
same,pH,"80 mg per 320 mL, 1 min",2.00
same,pH,"80 mg per 320 mL, 2 min",2.02
same,pH,"80 mg per 320 mL, 3 min",2.05
same,pH,"80 mg per 320 mL, 4 min",2.06
same,pH,"80 mg per 320 mL, 5 min",2.08
same,pH,"80 mg per 320 mL, 6 min",2.10
same,pH,"80 mg per 320 mL, 7 min",2.12
same,pH,"80 mg per 320 mL, 8 min",2.13
same,pH,"80 mg per 320 mL, 9 min",2.15
same,pH,"80 mg per 320 mL, 10 min",2.17
same,pH,"80 mg per 320 mL, 20 min",2.30
same,pH,"80 mg per 320 mL, 30 min",2.40
same,pH,"80 mg per 320 mL, 40 min",2.48
same,pH,"80 mg per 320 mL, 50 min",2.55
same,pH,"80 mg per 320 mL, 60 min",2.63
same,pH,"80 mg powder/200 ml, 4 min",6.21
same,pH,"80 mg powder/200 ml, 5 min",6.67
same,pH,"80 mg powder/200 ml, 6 min",7.22
same,pH,"80 mg powder/200 ml, 7 min",7.98
same,pH,"80 mg powder/200 ml, 8 min",8.42
same,pH,"80 mg powder/200 ml, 9 min",8.44
same,pH,"80 mg powder/200 ml, 10 min",10.13
same,pH,"80 mg powder/200 ml, 20 min",10.13
same,pH,"80 mg powder/200 ml, 30 min",8.66
same,pH,"80 mg powder/200 ml, 40 min",10.13
same,pH,"80 mg, Granular/200 ml, 4 min",2.75
same,pH,"80 mg, Granular/200 ml, 5 min",3.37
same,pH,"80 mg, Granular/200 ml, 6 min",5.50
same,pH,"80 mg, Granular/200 ml, 7 min",6.04
same,pH,"80 mg, Granular/200 ml, 8 min",6.38
same,pH,"80 mg, Granular/200 ml, 9 min",6.74
same,pH,"80 mg, Granular/200 ml, 10 min",7.05
same,pH,"80 mg, Granular/200 ml, 20 min",7.50
same,pH,"80 mg, Granular/200 ml, 30 min",9.14
same,pH,"100 mg powder/200 ml, 4 min",2.37
same,pH,"100 mg powder/200 ml, 5 min",2.37
same,pH,"100 mg powder/200 ml, 6 min",3.52
same,pH,"100 mg powder/200 ml, 7 min",3.52
same,pH,"100 mg powder/200 ml, 8 min",3.52
same,pH,"100 mg powder/200 ml, 9 min",3.52
same,pH,"100 mg powder/200 ml, 10 min",3.52
same,pH,"100 mg powder/200 ml, 20 min",5.00
same,pH,"100 mg powder/200 ml, 30 min",6.50
same,pH,"100 mg powder/200 ml, 40 min",8.09
same,pH,"120 mg powder/200 ml, 4 min",6.97
same,pH,"120 mg powder/200 ml, 5 min",8.21
same,pH,"120 mg powder/200 ml, 6 min",8.21
same,pH,"120 mg powder/200 ml, 7 min",8.21
same,pH,"120 mg powder/200 ml, 8 min",8.21
same,pH,"120 mg powder/200 ml, 9 min",8.21
same,pH,"120 mg powder/200 ml, 10 min",8.21
same,pH,"120 mg powder/200 ml, 20 min",8.21
same,pH,"120 mg powder/200 ml, 30 min",8.21
same,pH,"160 mg per 320 mL, 0 min",1.99
same,pH,"160 mg per 320 mL, 1 min",2.05
same,pH,"160 mg per 320 mL, 2 min",2.14
same,pH,"160 mg per 320 mL, 3 min",2.24
same,pH,"160 mg per 320 mL, 4 min",2.35
same,pH,"160 mg per 320 mL, 5 min",2.47
same,pH,"160 mg per 320 mL, 6 min",2.60
same,pH,"160 mg per 320 mL, 7 min",2.71
same,pH,"160 mg per 320 mL, 8 min",2.83
same,pH,"160 mg per 320 mL, 9 min",2.95
same,pH,"160 mg per 320 mL, 10 min",3.07
same,pH,"160 mg per 320 mL, 20 min",8.16
same,pH,"160 mg per 320 mL, 30 min",9.30
same,pH,"160 mg per 320 mL, 40 min",9.54
same,pH,"160 mg per 500 mL, 0 min",1.98
same,pH,"160 mg per 500 mL, 1 min",2.00
same,pH,"160 mg per 500 mL, 2 min",2.02
same,pH,"160 mg per 500 mL, 3 min",2.05
same,pH,"160 mg per 500 mL, 4 min",2.07
same,pH,"160 mg per 500 mL, 5 min",2.12
same,pH,"160 mg per 500 mL, 6 min",2.15
same,pH,"160 mg per 500 mL, 7 min",2.18
same,pH,"160 mg per 500 mL, 8 min",2.22
same,pH,"160 mg per 500 mL, 9 min",2.24
same,pH,"160 mg per 500 mL, 10 min",2.27
same,pH,"160 mg per 500 mL, 20 min",2.54
same,pH,"160 mg per 500 mL, 30 min",2.62
same,pH,"160 mg per 500 mL, 40 min",2.74
same,pH,"160 mg per 500 mL, 50 min",2.86
same,pH,"160 mg per 500 mL, 60 min",2.96
same,effect on pH of the solution,80-120 mg/200 ml powder and 80 mg granular/200 ml,rapidly raise the pH of the solution to neutral or higher
"Cl.N=C(N)NCCC[C@H](N)C(=O)O [Arginine HCl, L-arginine-HCl]",pH,"100 mg in 200 ml, 10 min",2.20
same,pH,"100 mg in 200 ml, 20 min",2.20
same,pH,"100 mg in 200 ml, 30 min",2.20
same,pH,"100 mg in 200 ml, 40 min",2.20
same,pH,"100 mg in 200 ml, 50 min",2.20
same,pH,"100 mg in 200 ml, 60 min",2.20
"O=C([O-])[O-].[Mg+2] [Magnesium Carbonate, magnesium carbonate]",pH,"80 mg in 200 ml, 0 min",2.73
same,pH,"80 mg in 200 ml, 1 min",4.78
same,pH,"80 mg in 200 ml, 2 min",6.09
same,pH,"80 mg in 200 ml, 3 min",6.57
same,pH,"80 mg in 200 ml, 4 min",7.44
same,pH,"80 mg in 200 ml, 5 min",8.64
same,pH,"80 mg in 200 ml, 6 min",8.92
same,pH,"80 mg in 200 ml, 7 min",9.03
same,pH,"80 mg in 200 ml, 8 min",9.09
same,pH,"80 mg in 200 ml, 9 min",9.13
same,pH,"80 mg in 200 ml, 10 min",9.17
same,pH,"80 mg in 200 ml, 20 min",9.26
same,pH,"80 mg in 200 ml, 30 min",9.26
same,pH of the solution,"80 mg in 200 ml, 30 minute timecourse",above 9
same,pH,"100 mg in 200 ml, 10 min",3.05
same,pH,"100 mg in 200 ml, 20 min",3.05
same,pH,"100 mg in 200 ml, 30 min",3.05
same,pH,"100 mg in 200 ml, 40 min",3.05
same,pH,"100 mg in 200 ml, 50 min",3.05
same,pH,"100 mg in 200 ml, 60 min",3.05
